Laboratory results published in ChEMBL document CHEMBL3352525, “RET Kinase Inhibitors May Treat Cancer and Gastrointestinal Disorders” (ACS Med Chem Lett, 2015).

Columns and labels:
[1] = target: T1, Proto-oncogene tyrosine-protein kinase receptor Ret (Homo sapiens, UniProt P07949); assay: Inhibition of human RET kinase in TT cells by TRET Kinase cell-based mechanistic assay
[2] = target: T1, Proto-oncogene tyrosine-protein kinase receptor Ret; assay: Inhibition of human RET kinase cytoplasmic domain by Time-Resolved fluorescence reader assay

T1 sequence (P07949 whole entry, the tested form may be a part): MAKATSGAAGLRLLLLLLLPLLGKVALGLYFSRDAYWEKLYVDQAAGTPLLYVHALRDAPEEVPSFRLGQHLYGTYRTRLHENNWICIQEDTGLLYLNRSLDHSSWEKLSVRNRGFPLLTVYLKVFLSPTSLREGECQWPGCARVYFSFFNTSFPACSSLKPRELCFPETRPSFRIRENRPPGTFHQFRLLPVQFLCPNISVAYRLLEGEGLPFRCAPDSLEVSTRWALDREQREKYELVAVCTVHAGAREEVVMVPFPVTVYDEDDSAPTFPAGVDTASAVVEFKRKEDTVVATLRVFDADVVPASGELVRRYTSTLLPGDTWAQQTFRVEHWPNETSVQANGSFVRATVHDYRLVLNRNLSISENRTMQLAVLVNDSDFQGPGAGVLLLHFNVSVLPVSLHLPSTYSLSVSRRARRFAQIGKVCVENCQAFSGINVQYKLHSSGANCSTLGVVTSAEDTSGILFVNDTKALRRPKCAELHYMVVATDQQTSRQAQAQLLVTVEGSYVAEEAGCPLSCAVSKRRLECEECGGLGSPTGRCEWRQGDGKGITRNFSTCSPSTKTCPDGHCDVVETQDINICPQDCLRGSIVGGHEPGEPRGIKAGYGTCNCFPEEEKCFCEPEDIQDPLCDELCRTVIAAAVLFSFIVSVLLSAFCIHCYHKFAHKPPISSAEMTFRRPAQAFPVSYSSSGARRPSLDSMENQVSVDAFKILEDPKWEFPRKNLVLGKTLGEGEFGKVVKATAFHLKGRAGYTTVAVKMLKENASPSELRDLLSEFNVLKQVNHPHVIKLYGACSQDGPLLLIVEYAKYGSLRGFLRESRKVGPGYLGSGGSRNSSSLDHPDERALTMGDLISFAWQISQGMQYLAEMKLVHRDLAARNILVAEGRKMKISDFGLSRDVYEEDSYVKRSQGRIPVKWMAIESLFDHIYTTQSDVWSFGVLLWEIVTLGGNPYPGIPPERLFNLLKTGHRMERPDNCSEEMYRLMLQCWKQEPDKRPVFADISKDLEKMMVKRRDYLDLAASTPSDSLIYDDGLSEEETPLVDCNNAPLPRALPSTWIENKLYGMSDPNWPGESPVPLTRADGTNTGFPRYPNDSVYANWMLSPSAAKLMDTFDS

## CCOc1cc(-c2ccc(CC(=O)Nc3ccc(Cl)c(Cl)c3)c(F)c2)c[nH]c1=O
[1]
  IC50: > 500 nM
[2]
  IC50: ≥ 100 nM
